Assay results taken from PubChem BioAssay AID2060505 (Molecular Pharmacology Branch, DTP, NCI, 2025).

Test system: 633275-114-R-J1-PDC complex spheroids, viability
Test: Anticancer human tumor 633275-114-R-J1-PDC patient-derived endometrial adenocarcinoma cell line growth inhibition [GQUAD]
Settings: for IC50: curve of first compound; for viability, T/C: stronger effect = lower value
In short: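 Multi-cell-type spheroids of tumor cells with HUVEC and mesenchymal stem cells, treated with drug combinations. Concentrations descend in half-log steps from near clinical Cmax, or from 10 microM where Cmax is unknown; viability read-out.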
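Also: spheroids exposed to the agents for seven days.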
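For viability, T/C in this document: percent of DMSO vehicle control viability which is 100%.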

For `CC[C@@]1(O)C(=O)OCc2c1cc1n(c2=O)Cc2cc3c(CN(C)C)c(O)ccc3nc2-1` + Cc1cnc(CNC(=O)c2c(=O)c3ccc(N4CCCN(C)CC4)nc3n3c2sc2ccccc23)cn1, the IC50 (second compound 0.0316 µM) was 32.8 nM, the IC50 (second compound 0.1 µM) was 1.27 nM and the IC50 (second compound 0.316 µM) was 1.65 nM. For the same compound, the IC50 (second compound 1 µM) was under 0.999 nM, the IC50 (second compound 3.16 µM) was under 0.999 nM and the IC50 (second compound 10 µM) was under 0.999 nM. It also gave a viability, T/C (second compound 0.0316 µM, first compound 0.000999 µM) of 63.9%, a viability, T/C (second compound 0.0316 µM, first compound 0.00316 µM) of 62.7% and a viability, T/C (second compound 0.0316 µM, first compound 0.00999 µM) of 53.8%. It also gave a viability, T/C (second compound 0.0316 µM, first compound 0.0316 µM) of 54.5%, a viability, T/C (second compound 0.0316 µM, first compound 0.0999 µM) of 38.4% and a viability, T/C (second compound 0.0316 µM, first compound 0.316 µM) of 32.8%. It also gave a viability, T/C (second compound 0.1 µM, first compound 0.000999 µM) of 50.7%, a viability, T/C (second compound 0.1 µM, first compound 0.00316 µM) of 47.6% and a viability, T/C (second compound 0.1 µM, first compound 0.00999 µM) of 47.5%. For the same compound, the viability, T/C (second compound 0.1 µM, first compound 0.0316 µM) was 42.6%, the viability, T/C (second compound 0.1 µM, first compound 0.0999 µM) was 41% and the viability, T/C (second compound 0.1 µM, first compound 0.316 µM) was 36.5%. It also gave a viability, T/C (second compound 0.316 µM, first compound 0.000999 µM) of 49.7%, a viability, T/C (second compound 0.316 µM, first compound 0.00316 µM) of 49.1% and a viability, T/C (second compound 0.316 µM, first compound 0.00999 µM) of 48.5%. The viability, T/C (second compound 0.316 µM, first compound 0.0316 µM) was 40.1%, the viability, T/C (second compound 0.316 µM, first compound 0.0999 µM) was 34.7% and the viability, T/C (second compound 0.316 µM, first compound 0.316 µM) was 33.4%. For the same compound, the viability, T/C (second compound 1 µM, first compound 0.000999 µM) was 40%, the viability, T/C (second compound 1 µM, first compound 0.00316 µM) was 40.6% and the viability, T/C (second compound 1 µM, first compound 0.00999 µM) was 39.1%. The viability, T/C (second compound 1 µM, first compound 0.0316 µM) was 40.5%, the viability, T/C (second compound 1 µM, first compound 0.0999 µM) was 39.9% and the viability, T/C (second compound 1 µM, first compound 0.316 µM) was 35.2%. The viability, T/C (second compound 3.16 µM, first compound 0.000999 µM) was 38.4%, the viability, T/C (second compound 3.16 µM, first compound 0.00316 µM) was 37.9% and the viability, T/C (second compound 3.16 µM, first compound 0.00999 µM) was 37.7%. The viability, T/C (second compound 3.16 µM, first compound 0.0316 µM) was 33.1%, the viability, T/C (second compound 3.16 µM, first compound 0.0999 µM) was 35.9% and the viability, T/C (second compound 3.16 µM, first compound 0.316 µM) was 29.9%. For the same compound, the viability, T/C (second compound 10 µM, first compound 0.000999 µM) was 31.7%, the viability, T/C (second compound 10 µM, first compound 0.00316 µM) was 35.8% and the viability, T/C (second compound 10 µM, first compound 0.00999 µM) was 29.8%. It also gave a viability, T/C (second compound 10 µM, first compound 0.0316 µM) of 31.9%, a viability, T/C (second compound 10 µM, first compound 0.0999 µM) of 32.7% and a viability, T/C (second compound 10 µM, first compound 0.316 µM) of 28.4%.
